Assay results as given in US20220264878A1, “HERBICIDAL COMPOSITION CONTAINING R-TYPE PYRIDYLOXY CARBOXYLIC ACID DERIVATIVE AND USE THEREOF” (Qingdao Kingagroot Chemical Compound Co., Ltd., priority 2019, published 2022).

How the values were obtained:
Assay in all cases: Post-emergence foliage spray, pot culture, fresh weight inhibition (Tables 1-48, 51-98, 101-148; 24 days)
Format in all cases: in vivo
Galium aparine L. = settings: fresh weight inhibition after 24 days
Procedure, shortened: (§1)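 Pot-grown weeds were thinned to 15 per pot (45 per treatment) and sprayed on foliage at the 5–6-leaf stage for grasses or the 6–7-leaf stage for broadleaves. Agents were dissolved in acetone with 0.1% Tween-80 and applied at 450 kg/ha spray volume and 0.3 MPa. Plants were then kept in a greenhouse. Above-ground fresh weight of survivors, with dead plants counted as zero, gave inhibition versus a solvent/emulsifier blank.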

[1] = system: Echinochloa crusgalli var. zelayensis
Procedure, shortened: as §1

Amaranthus retroflexus = system: Amaranthus retroflexus
Procedure, shortened: (§2)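 Greenhouse pot-grown weeds (15 per pot, 3 pots, 4 replicates) at the 5–6-leaf (grasses) or 6–7-leaf (broadleaf) stage were sprayed once on foliage at 450 kg/ha spray volume, 0.3 MPa. Acetone solutions were diluted in 0.1% Tween-80. Aboveground fresh weight versus blank control was recorded after 24 days.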

Eclipta prostrate = settings: fresh weight inhibition after 24 days
Procedure, shortened: as §2

Echinochloa caudate = system: Echinochloa caudate
Procedure, shortened: as §1

Chenopodium album = system: Chenopodium album
Procedure, shortened: as §1

Ipomoea purpurea = settings: Table 98
Procedure, shortened: as §2

Ludwigia prostrate = system: Ludwigia prostrate
Procedure, shortened: as §2

Eleusine indica = system: Eleusine indica
Procedure, shortened: as §2

[2] = system: Veronica persica^2 (collected in Zhumadian of Henan Province)
Procedure, shortened: as §2

## C[C@@H](Oc1nc(F)c(Cl)c(N)c1Cl)C(=O)OCC1CCCO1 (stereo partly shown) [Compound A2]
Galium aparine L.; A 7.5 g a.i/ha
  Control effect (%) of A applied alone in corresponding dose: 34.8%
Galium aparine L.; A 15 g a.i/ha
  Control effect (%) of A applied alone in corresponding dose: 68.5%
Galium aparine L.; A 150 g a.i/ha (so in the source)
  Control effect (%) of A applied alone in corresponding dose: 68.5%
[1]; A2 75 g a.i./ha
  Control effect (%) of A applied alone in corresponding dose: 54.2%
[1]; A2 150 g a.i./ha
  Control effect (%) of A applied alone in corresponding dose: 75.3%
[1]; A 75 g a.i./ha, foliage spray, fresh weight inhibition after 24 days
  Control effect (%) of A applied alone in corresponding dose: 54.2%
[1]; A 150 g a.i./ha, foliage spray, fresh weight inhibition after 24 days
  Control effect (%) of A applied alone in corresponding dose: 75.3%
Amaranthus retroflexus; A2 75 g a.i./ha
  Control effect (%) of A applied alone in corresponding dose: 22.9%
Amaranthus retroflexus; A2 150 g a.i./ha
  Control effect (%) of A applied alone in corresponding dose: 52.4%
Eclipta prostrate; A 75 g a.i/ha
  Control effect (%) of A applied alone in corresponding dose: 32.3%
Eclipta prostrate; A 150 g a.i/ha
  Control effect (%) of A applied alone in corresponding dose: 68.4%

## C[C@@H](Oc1nc(F)c(Cl)c(N)c1Cl)C(=O)O [Compound A1]
Echinochloa caudate; A1 75 g a.i./ha
  Control effect (%) of A applied alone in corresponding dose: 55.2%
Echinochloa caudate; A1 150 g a.i./ha
  Control effect (%) of A applied alone in corresponding dose: 76.3%
Echinochloa caudate; Table 80, 7.5 g a.i./ha
  Control effect (%) of A applied alone in corresponding dose: 55.2%
Echinochloa caudate; Table 80, 15 g a.i./ha
  Control effect (%) of A applied alone in corresponding dose: 76.3%
Echinochloa caudate; Table 81, 75 g a.i./ha
  Control effect (%) of A applied alone in corresponding dose: 55.2%
Echinochloa caudate; Table 81, 150 g a.i./ha
  Control effect (%) of A applied alone in corresponding dose: 76.3%
Echinochloa caudate; Table 85, 75 g a.i./ha
  Control effect (%) of A applied alone in corresponding dose: 55.2%
Echinochloa caudate; Table 85, 150 g a.i./ha
  Control effect (%) of A applied alone in corresponding dose: 76.3%
Echinochloa caudate; Table 86, 75 g a.i./ha
  Control effect (%) of A applied alone in corresponding dose: 55.2%
Echinochloa caudate; Table 86, 150 g a.i./ha
  Control effect (%) of A applied alone in corresponding dose: 76.3%
Echinochloa caudate; Table 89, 75 g a.i./ha
  Control effect (%) of A applied alone in corresponding dose: 55.2%
Echinochloa caudate; Table 89, 150 g a.i./ha
  Control effect (%) of A applied alone in corresponding dose: 76.3%
Echinochloa caudate; Table 97, 75 g a.i./ha
  Control effect (%) of A applied alone in corresponding dose: 55.2%
Echinochloa caudate; Table 97, 150 g a.i./ha
  Control effect (%) of A applied alone in corresponding dose: 76.3%
Chenopodium album; A1 7.5 g a.i./ha
  Control effect (%) of A applied alone in corresponding dose: 23.1%
Chenopodium album; A1 15 g a.i./ha
  Control effect (%) of A applied alone in corresponding dose: 55.6%
Chenopodium album; Table 91, 75 g a.i./ha
  Control effect (%) of A applied alone in corresponding dose: 23.1%
Chenopodium album; Table 91, 150 g a.i./ha
  Control effect (%) of A applied alone in corresponding dose: 55.6%
Chenopodium album; Table 92, 75 g a.i./ha
  Control effect (%) of A applied alone in corresponding dose: 23.1%
Chenopodium album; Table 92, 150 g a.i./ha
  Control effect (%) of A applied alone in corresponding dose: 55.6%
Chenopodium album; Table 93, 75 g a.i./ha
  Control effect (%) of A applied alone in corresponding dose: 23.1%
Chenopodium album; Table 93, 150 g a.i./ha
  Control effect (%) of A applied alone in corresponding dose: 55.6%
Chenopodium album; Table 94, 75 g a.i./ha
  Control effect (%) of A applied alone in corresponding dose: 23.1%
Chenopodium album; Table 94, 150 g a.i./ha
  Control effect (%) of A applied alone in corresponding dose: 55.6%
Chenopodium album; Table 95, 75 g a.i./ha
  Control effect (%) of A applied alone in corresponding dose: 23.1%
Chenopodium album; Table 95, 150 g a.i./ha
  Control effect (%) of A applied alone in corresponding dose: 55.6%
Chenopodium album; Table 96, 75 g a.i./ha
  Control effect (%) of A applied alone in corresponding dose: 23.1%
Chenopodium album; Table 96, 150 g a.i./ha
  Control effect (%) of A applied alone in corresponding dose: 55.6%
Ipomoea purpurea; 75 g a.i./ha
  Control effect (%) of A applied alone in corresponding dose: 37.7%
Ipomoea purpurea; 150 g a.i./ha (r12), r13 prints 75 + 7.5, A:B 20:1
  Control effect (%) of A applied alone in corresponding dose: 59.5%
Ludwigia prostrate; A1 75 g a.i./ha
  Control effect (%) of A applied alone in corresponding dose: 34.3%
Ludwigia prostrate; A1 150 g a.i./ha
  Control effect (%) of A applied alone in corresponding dose: 72.4%
Eleusine indica; Table 79, 75 g a.i./ha
  Control effect (%) of A applied alone in corresponding dose: 24.4%
Eleusine indica; Table 79, 150 g a.i./ha
  Control effect (%) of A applied alone in corresponding dose: 52.2%
Eleusine indica; Table 82, 75 g a.i./ha
  Control effect (%) of A applied alone in corresponding dose: 24.4%
Eleusine indica; Table 82, 150 g a.i./ha
  Control effect (%) of A applied alone in corresponding dose: 52.2%
Eleusine indica; Table 83, 75 g a.i./ha
  Control effect (%) of A applied alone in corresponding dose: 24.4%
Eleusine indica; Table 83, 150 g a.i./ha
  Control effect (%) of A applied alone in corresponding dose: 52.2%
[2]; Table 87, 75 g a.i./ha
  Control effect (%) of A applied alone in corresponding dose: 19.6%
[2]; Table 87, 150 g a.i./ha
  Control effect (%) of A applied alone in corresponding dose: 42.4%
[2]; Table 88, 75 g a.i./ha
  Control effect (%) of A applied alone in corresponding dose: 19.6%
[2]; Table 88, 150 g a.i./ha
  Control effect (%) of A applied alone in corresponding dose: 42.4%
[2]; Table 90, 75 g a.i./ha
  Control effect (%) of A applied alone in corresponding dose: 19.6%
[2]; Table 90, 150 g a.i./ha
  Control effect (%) of A applied alone in corresponding dose: 42.4%
